Usually solubility stands for how much of the substance goes into solution per volume. Broadly, the share remaining is the share of the starting amount still present when the sample was taken. As usually defined, the AUC is the area under the concentration-time curve, a measure of exposure. The term EC50 denotes the concentration that produces a half-maximal response. The low end stands for an effect from little substance, the high end for a need for much substance.

Values after ≈ are worked out from the molar mass of the structure shown. Values joined by “and” are separate entries in the source; they are usually repeats but may differ in a detail not shown here. Equal entries are not always repeated. Bounds are passed on as bounds.

The nature of data set [1]: Aqueous solubility assay in PBS buffer (pH 7.4). It counts as physicochemical. The method, then: The aqueous solubility was determined as previously reported with minor modifications.[48] Briefly, an excess amount of P11 or DRP-104 was added to PBS buffer (pH 7.4) and sonicated for 1 h at 37 °C to ensure saturation. After 1 h, the solution was filtered (0.45 μm PTFE), and the filtrate was diluted appropriately, and the concentration of each analyte was determined via LC–MS. Chemical stabilities of DRP-104 and P11 were done as previously described[18] with modifications. For chemical stability, prodrugs were spiked (10 μM) in buffer at pH 7.4 and incubated at 37 °C for 24 h. Prodrug disappearance was monitored using the developed HRMS methods.

Data set [2] can be described thus: Metabolic stability in mouse plasma.
Protocol: (§2) Briefly, intestinal tissue was homogenized over ice via probe sonication with 1:9 tissue to potassium phosphate buffer (0.1 M) conditions. Prodrugs were spiked in plasma or tissue homogenate at 10 μM final concentration with 0.2% DMSO v/v and incubated in triplicate for 0 and 60 min time points. At each time point, 100 μL of the sample was precipitated with 300 μL of methanol containing internal standard (IS; losartan, 0.5 μM). Precipitated samples were vortexed (30 s) and centrifuged at 10000g for 10 min at 4 °C. After centrifugation, 100 μL of supernatant was aliquoted and submitted for analysis. Prodrug disappearance over time was monitored by liquid chromatography–mass spectrometry (LC–MS) through peak area ratios between the analyte and internal standard.
(§3) Chromatographic analysis was performed on a Dionex ultra-high-performance LC system coupled with a Q Exactive Focus Orbitrap mass spectrometer (Thermo Fisher Scientific Inc., Waltham, MA). Separation was achieved using an Agilent Eclipse Plus column (100 × 2.1 mm i.d.; maintained at 35 °C) packed with a 1.8 μm C18 stationary phase. The mobile phase used was composed of 0.1% formic acid in acetonitrile and 0.1% formic acid in water with gradient elution, starting with 2.5% organic phase (from 0 to 0.25 min) and linearly increasing to 99% (from 0.25 to 1.25 min) and re-equilibrating to 2.5% by 4 min. The total run time for each analyte was 5 min. Pumps were operated at a flow rate of 0.4 mL/min. The mass spectrometer controlled by Xcalibur software 4.0.27.13 (Thermo Scientific) was operated with an HESI ion source in positive ionization mode for all compounds. Compounds were identified in the full-scan mode with m/z ranging from 75 to 1125.
The nature of data set [3]: Metabolic stability in mouse intestinal homogenate (GIh).
Protocol: as §2, §3
Data set [4] in a line: Full pharmacokinetic evaluation of P11 in EL4 tumor-bearing mice (intact prodrug and released DON). It counts as in vivo, C57BL/6/CES1–/– mice. As to conditions: P11 2.9 mg/kg SC, analyte intact P11. The method, then:
(§1) C57BL/6/CES1^–/– mice were obtained as a gift from the United States Army Medical Research Institute of Chemical Defense, Maryland, USA; breeding was performed in the Johns Hopkins animal facility and was conducted according to protocols reviewed and approved by the Johns Hopkins Institutional Animal Care and Use Committee in compliance with the Association for Assessment and Accreditation of Laboratory Animal Care International (AAALAC) and the Public Health Service Policy on the Humane Care and Use of Laboratory Animals (PHS Policy). Male and female C57BL/6 mice (weighing between 25 and 30 g) 6–8 weeks of age were used for the study. The animals were maintained on a 12 h light–dark cycle with ad libitum access to food (certified laboratory food: Teklad 18% Protein Extruded Rodent Diet) and water. EL4 mouse lymphoma cells were obtained as a gift from the laboratory of Dr. Jonathan Powell (Johns Hopkins University, Baltimore, MD) and maintained in RPMI 1640 medium 1X (Corning, cat. no. 10-040-CV) with 10% (v/v) fetal bovine serum (Corning, cat. no. 35-011-CV), 1% (v/v) antimycotic/antibiotic (Corning, cat. no. 30-004-CI), 2 mM L-glutamine (Corning, cat. no. 25-005-CI), and 10 mM HEPES (Corning, cat. no. 25-060-CI) in a 5% (v/v) CO2 and 95% (v/v) air incubator prior to subcutaneous (SC) injection (1 × 10^6 cells in 0.2 mL of phosphate-buffered saline) on the flank of each mouse.
Pharmacokinetic study was performed after tumors grew to a mean volume of around 400 mm^3. […]
Plasma concentration levels of P11 were measured by precipitating 20 μL of plasma sample with 100 μL of methanol containing internal standard (losartan, 0.5 μM), followed by vortex mixing for 30 s and then centrifugation at 16000g for 5 min at 4 °C. […]
Chromatographic analysis was performed on an Agilent ultra-high-performance LC system coupled with an Agilent 6520 QTOF mass spectrometer (Agilent, Santa Clara, CA). […] P11 concentrations were determined by the AUC of high-resolution extracted chromatograms of P11 divided by internal standard (460.2554 m/z/423.1695 m/z). […]

Data set [5] is described as follows: Single time point pharmacokinetic screening, released DON in plasma and tumor of EL4 tumor-bearing mice. It counts as in vivo, C57BL/6/CES1–/– mice. As to conditions: 1 mg/kg DON equivalent SC; 30 min. The method, then:
as §1, with “mouse. […]” for “mouse.”

Data set [6] relates to P493B lymphoma cells. Briefly: Cell viability assay. It counts as cell-based. Conditions: Homo sapiens, 72 h, 72 h incubation. The method, then: Cell proliferation assays were performed as we have previously described.[19] Briefly, P493B lymphoma cells were plated in 96-well plates at a density of 20 000 cells/well in a final volume of 100 μL of growth media. P11, or DRP-104, was added to cells in half-log serial dilutions with a final concentration of 0.2% DMSO. Cells were allowed to proliferate for 72 h, and thereafter, 20 μL of CellTiter 96 AQueous (Promega no. 3580) was added per well and incubated for 2 h. Absorbance was measured at 490 nm. Relative cell viability was calculated from the difference between untreated cell wells (100%) and media well without cells (0%).

Where [7] appears, read: supplementary CSV, unit not given, matches Table 1 % remaining at 1 h, in %.

In data set [1] (PBS buffer pH 7.4, 37 °C, 1 h), `CN(C)CC(=O)N[C@@H](Cc1ccccc1)C(=O)N[C@@H](CCC(=O)C=[N+]=[N-])C(=O)OC(C)(C)C` [Prodrug P11, tert-Butyl (S)-6-Diazo-2-((S)-2-(2-(dimethylamino)acetamido)-3-phenylpropanamido)-5-oxohexanoate] came in with a solubility at 1 h of 8100 ± 1100 µg/mL (≈ 17.6 mM). Moreover, in data set [1] (buffer pH 7.4), the “fold solubility improvement compared to DRP-104” value is 33 and > 30. Moreover, the amount remaining at 1 h, 10 µM was 93 ± 1% in data set [2] (CES1–/–, mouse, plasma) and 78 ± 2% in data set [3] (CES1–/–, mouse, intestinal homogenate). This molecule also gave a Plasma in data set [2] (setting [7]) of 93 ± 1. Further, in data set [3] (setting [7]), the Intestinal homogenate was determined as 78 ± 2. Moreover, the “intestinal tissue levels of intact prodrug (below the limit of quantification)” value in data set [4] (intestinal tissue) is less than 0.01 nmol/mL. Also, the “AUC of intact prodrug, tumor” value in data set [4] (tumor) was 0.092 nmol·h/g. Moreover, the AUC at 6 h in data set [4] (both sexes, C57BL/6/CES1–/–, mouse, plasma) amounted to 0.15 µM·h. The “preferential DON tumor versus plasma delivery” value in data set [5] is listed as “maintained the preferential DON tumor versus plasma delivery”. The molecule further had an EC50 in data set [6] of approximately 300 nM.
